Results reported in patent US20240141294A1, “CGMP COMPLIANT PRODUCTION AND EXPANSION OF PLASMACYTOID DENDRITIC CELLS FROM HEMATOPOIETIC STEM AND PROGENITOR CELLS” (AARHUS UNIVERSITET, priority 2021, published 2024).

Tested on: HSPC-pDCs
Experiment: RNA-sequencing of HSPC-pDCs generated with or without ascorbic acid
Assay type: cell-based, human
Settings: for Log2 (+AA/−AA) / +AA FPKM: Table 2
Method: HSPCs were thawed and 1×10^5 cells were seeded in DC medium with or without supplementation of ascorbic acid (AA). Following 16 days of differentiation with or without AA in the medium, pDCs were isolated by immunomagnetic depletion of non-pDCs, and HSPCs-pDCs were then primed for 72 hours with IFN-β/γ. Following priming, HSPC-pDCs were stored in RNAprotect Cell Reagent (Qiagen) at −80° C. until total RNA was extracted using the RNeasy Plus Micro Kit (Qiagen), which efficiently eliminates genomic DNA without the need for DNase treatment. The total RNA was send to BGI Europe for RNA-seq. Here, a non-stranded & polyA-selected mRNA library was prepared from the total RNA and subjected to PE100 sequencing using the BGISEQ platform. The samples generated on average about 4.84 Gb bases per sample. Low quality reads were filtered and the remaining reads were mapped to the genome with an average mapping ratio with the reference genome at 92.74%, the average gene mapping ratio at 79.90%. In total, 18,412 genes were identified. Gene expression was calculated based on the reads, differentially expressed genes and gene ontology analyses were analyzed on BGI's software analysis platform Dr. Tom. HSPCs were thawed and 1×10^5 cells were seeded in DC medium with or without supplementation of ascorbic acid (AA). Following 16 days of differentiation with or without AA in the medium, pDCs were isolated by immunomagnetic depletion of non-pDCs, and HSPCs-pDCs were then primed for 72 hours with IFN-β/γ. Following priming, HSPC-pDCs were stored in RNAprotect Cell Reagent (Qiagen) at −80 degrees until total RNA was extracted using the RNeasy Plus Micro Kit (Qiagen), which efficiently eliminates genomic DNA without the need for DNase treatment. The total RNA was send to BGI Europe for RNA-seq. Here, a non-stranded & polyA-selected mRNA library was prepared from the total RNA and subjected to PE100 sequencing using the BGISEQ platform. The samples generated on average about 4.84 Gb bases per sample. Low quality reads were filtered and the remaining reads were mapped to the genome with an average mapping ratio with the reference genome at 92.74%, the average gene mapping ratio at 79.90%. In total, 18,412 genes were identified. Gene expression was calculated based on the reads, differentially expressed genes and gene ontology analyses were analyzed on BGI's software analysis platform Dr. Tom.

SMILES: O=C1O[C@H]([C@@H](O)CO)C(O)=C1O [ascorbic acid]
- Log2 (+AA/−AA) (gene ACP5, Qvalue 4.83E−10): 2.221
- +AA FPKM (gene ACP5, −AA FPKM 31.073): 146.980 FPKM
- Log2 (+AA/−AA) (gene ADAMDEC1, Qvalue 0.0010135): 3.569
- +AA FPKM (gene ADAMDEC1, −AA FPKM 1.127): 13.453 FPKM
- Log2 (+AA/−AA) (gene ASS1, Qvalue 2.41E−08): 5.358
- +AA FPKM (gene ASS1, −AA FPKM 0.477): 19.263 FPKM
- Log2 (+AA/−AA) (gene ATF5, Qvalue 2.01E−54): 2.398
- +AA FPKM (gene ATF5, −AA FPKM 24.183): 129.867 FPKM
- Log2 (+AA/−AA) (gene AXL, Qvalue 9.98E−29): 4.406
- +AA FPKM (gene AXL, −AA FPKM 1.033): 21.903 FPKM
- Log2 (+AA/−AA) (gene C3, Qvalue 0.001547846): 3.579
- +AA FPKM (gene C3, −AA FPKM 1.227): 14.750 FPKM
- Log2 (+AA/−AA) (gene CCL2, Qvalue 5.74E−06): 4.646
- +AA FPKM (gene CCL2, −AA FPKM 7.183): 179.503 FPKM
- Log2 (+AA/−AA) (gene CCL13, Qvalue 8.06E−14): 6.195
- +AA FPKM (gene CCL13, −AA FPKM 0.197): 14.483 FPKM
- Log2 (+AA/−AA) (gene CD14, Qvalue 2.98E−25): 4.038
- +AA FPKM (gene CD14, −AA FPKM 2.797): 46.303 FPKM
- Log2 (+AA/−AA) (gene CD209, Qvalue 9.84E−27): 2.774
- +AA FPKM (gene CD209, −AA FPKM 2.460): 16.407 FPKM
- Log2 (+AA/−AA) (gene CES1, Qvalue 0.03002647): 3.002
- +AA FPKM (gene CES1, −AA FPKM 6.620): 52.940 FPKM
- Log2 (+AA/−AA) (gene CFB, Qvalue 2.09E−06): 3.059
- +AA FPKM (gene CFB, −AA FPKM 1.257): 10.533 FPKM
- Log2 (+AA/−AA) (gene CHI3L1, Qvalue 0.024834793): 2.178
- +AA FPKM (gene CHI3L1, −AA FPKM 108.107): 495.927 FPKM
- Log2 (+AA/−AA) (gene CTSL, Qvalue 0.031636618): 2.759
- +AA FPKM (gene CTSL, −AA FPKM 3.140): 21.410 FPKM
- Log2 (+AA/−AA) (gene CXCL10, Qvalue 1.78E−06): 2.352
- +AA FPKM (gene CXCL10, −AA FPKM 36.100): 183.493 FPKM
- Log2 (+AA/−AA) (gene DEFA1, Qvalue 6.38E−05): 5.728
- +AA FPKM (gene DEFA1, −AA FPKM 19.907): 1047.070 FPKM
- Log2 (+AA/−AA) (gene DEFA3, Qvalue 0.001704486): 4.431
- +AA FPKM (gene DEFA3, −AA FPKM 27.457): 593.480 FPKM
- Log2 (+AA/−AA) (gene DEFA4, Qvalue 1.65E−08): 4.651
- +AA FPKM (gene DEFA4, −AA FPKM 39.303): 975.213 FPKM
- Log2 (+AA/−AA) (gene DNASE1L3, Qvalue 5.63E−10): 2.459
- +AA FPKM (gene DNASE1L3, −AA FPKM 1.893): 10.470 FPKM
- Log2 (+AA/−AA) (gene FPR3, Qvalue 3.93E−08): 2.200
- +AA FPKM (gene FPR3, −AA FPKM 10.853): 50.280 FPKM
- Log2 (+AA/−AA) (gene GIMAP4, Qvalue 3.03E−09): 2.409
- +AA FPKM (gene GIMAP4, −AA FPKM 3.960): 20.933 FPKM
- Log2 (+AA/−AA) (gene GPNMB, Qvalue 4.79E−08): 4.418
- +AA FPKM (gene GPNMB, −AA FPKM 4.760): 101.280 FPKM
- Log2 (+AA/−AA) (gene GZMB, Qvalue 3.57E−07): 3.081
- +AA FPKM (gene GZMB, −AA FPKM 3.773): 31.393 FPKM
- Log2 (+AA/−AA) (gene HSD11B1, Qvalue 0.044667374): 3.736
- +AA FPKM (gene HSD11B1, −AA FPKM 1.240): 16.590 FPKM
- Log2 (+AA/−AA) (gene IFI27, Qvalue 3.56E−04): 4.638
- +AA FPKM (gene IFI27, −AA FPKM 14.857): 376.697 FPKM
- Log2 (+AA/−AA) (gene IFI44L, Qvalue 1.82E−05): 2.109
- +AA FPKM (gene IFI44L, −AA FPKM 17.913): 81.280 FPKM
- Log2 (+AA/−AA) (gene IL4I1, Qvalue 5.63E−07): 2.589
- +AA FPKM (gene IL4I1, −AA FPKM 4.657): 28.410 FPKM
- Log2 (+AA/−AA) (gene IL32, Qvalue 2.92E−23): 2.353
- +AA FPKM (gene IL32, −AA FPKM 5.960): 30.560 FPKM
- Log2 (+AA/−AA) (gene KYNU, Qvalue 2.56E−05): 2.148
- +AA FPKM (gene KYNU, −AA FPKM 6.050): 26.750 FPKM
- Log2 (+AA/−AA) (gene LAG3, Qvalue 8.08E−20): 3.418
- +AA FPKM (gene LAG3, −AA FPKM 2.770): 29.953 FPKM
- Log2 (+AA/−AA) (gene LCN2, Qvalue 1.39E−54): 5.282
- +AA FPKM (gene LCN2, −AA FPKM 0.930): 35.670 FPKM
- Log2 (+AA/−AA) (gene LILRB4, Qvalue 3.21E−22): 3.922
- +AA FPKM (gene LILRB4, −AA FPKM 1.363): 19.833 FPKM
- Log2 (+AA/−AA) (gene MAFB, Qvalue 0.00100367): 3.471
- +AA FPKM (gene MAFB, −AA FPKM 1.023): 11.443 FPKM
- Log2 (+AA/−AA) (gene MMP14, Qvalue 1.27E−18): 4.564
- +AA FPKM (gene MMP14, −AA FPKM 1.470): 34.870 FPKM
- Log2 (+AA/−AA) (gene MPEG1, Qvalue 3.81E−23): 2.325
- +AA FPKM (gene MPEG1, −AA FPKM 22.783): 112.763 FPKM
- Log2 (+AA/−AA) (gene MX1, Qvalue 0.026353098): 2.341
- +AA FPKM (gene MX1, −AA FPKM 41.507): 211.673 FPKM
- Log2 (+AA/−AA) (gene MYL9, Qvalue 9.98E−29): 4.530
- +AA FPKM (gene MYL9, −AA FPKM 0.550): 12.580 FPKM
- Log2 (+AA/−AA) (gene NUPR1, Qvalue 8.23E−04): 3.257
- +AA FPKM (gene NUPR1, −AA FPKM 1.457): 14.303 FPKM
- Log2 (+AA/−AA) (gene OLR1, Qvalue 0.030792442): 2.719
- +AA FPKM (gene OLR1, −AA FPKM 1.523): 10.067 FPKM
- Log2 (+AA/−AA) (gene ORM1, Qvalue 1.09E−20): 4.863
- +AA FPKM (gene ORM1, −AA FPKM 3.003): 88.200 FPKM
- Log2 (+AA/−AA) (gene P2RY11, Qvalue 3.25E−10): 3.498
- +AA FPKM (gene P2RY11, −AA FPKM 0.970): 10.823 FPKM
- Log2 (+AA/−AA) (gene PLA2G7, Qvalue 0.030445407): 2.759
- +AA FPKM (gene PLA2G7, −AA FPKM 12.103): 86.573 FPKM
- Log2 (+AA/−AA) (gene SIGLEC1, Qvalue 0.003740839): 2.998
- +AA FPKM (gene SIGLEC1, −AA FPKM 3.223): 26.273 FPKM
- Log2 (+AA/−AA) (gene SLC7A7, Qvalue 6.15E−21): 2.460
- +AA FPKM (gene SLC7A7, −AA FPKM 9.010): 49.703 FPKM
- Log2 (+AA/−AA) (gene SLC15A3, Qvalue 4.84E−06): 2.417
- +AA FPKM (gene SLC15A3, −AA FPKM 9.753): 52.340 FPKM
- Log2 (+AA/−AA) (gene SPON2, Qvalue 6.39E−10): 2.497
- +AA FPKM (gene SPON2, −AA FPKM 4.037): 22.397 FPKM
- Log2 (+AA/−AA) (gene ST14, Qvalue 1.06E−29): 2.575
- +AA FPKM (gene ST14, −AA FPKM 1.920): 11.390 FPKM
- Log2 (+AA/−AA) (gene TLR7, Qvalue 1.13E−20): 2.326
- +AA FPKM (gene TLR7, −AA FPKM 2.483): 12.300 FPKM
- Log2 (+AA/−AA) (gene USP18, Qvalue 0.029120385): 3.335
- +AA FPKM (gene USP18, −AA FPKM 2.210): 22.600 FPKM
- Log2 (+AA/−AA) (gene XCR1, Qvalue 2.80E−29): 2.881
- +AA FPKM (gene XCR1, −AA FPKM 1.363): 10.463 FPKM
- log2 (+AA/−AA) (Table 3, gene FCER1G, Qvalue 0.03): 0.509
